Literature values, collected in patent US8911424B2, “Methods and devices for preventing catheter related urinary tract infections” (Ethicon, Inc., priority 2011, dated 2014).

Conditions: aqueous solubility

[Br][Ag] [Silver Bromide]
Solubility (g/100 g H2O): 0.000014 g/100 g H2O
